Measured values from article PMC8050080, “Cannabis sativa terpenes are cannabimimetic and selectively enhance cannabinoid activity” (Scientific Reports, 2021).

Tests used:
[1] = target: T1, CB1 (Homo sapiens, UniProt P21554); assay type: cell-based; set-up: expressed in transfected cells; host or cells: CHO (CB1-CHO-βarr2 / CB1-CHO-DX), gift from Dr. Robert Laprairie; conditions: Fig. S14C
[2] = system: male and female CD-1 mice; test: Tail flick thermal latency test (antinociception); assay type: in vivo; conditions: Fig. S1
Experimental: Antinociception was tested using the tail flick thermal latency test. Mice were baselined by gently restraining the animal and lowering the distal portion of the tail into a water bath set to 52 °C or 47 °C where stated, and the latency to flick the tail recorded with a stopwatch, with a 10 s cutoff. Mice were then injected with compounds intraperitoneally (i.p.). Thermal latency was then assessed over a time course of 2 h, or at a single time-point as noted. […] For assays using terpene/WIN55,212-2 co-treatment, WIN55,212-2 was co-administered with terpene in the same solution.

[3] = target: T1, CB1; test: biochemical; assay type: binding; conditions: CB1-CHO membranes; for competition for the orthosteric binding site against CP55,940: Fig. 8A
[4] = system: WT CHO cells; test: ERK phosphorylation (Western) in WT CHO cells; assay type: cell-based; conditions: for ERK phosphorylation in WT CHO cells: 500 μM terpene or 10 μM WIN55,212-2, 5 min, Fig. 7B
Experimental: WT-CHO cells were obtained from ATCC (#CCL-61). CHO cells stably expressing the human CB1 receptor were obtained from PerkinElmer (#ES-110-C) and utilized for western blots (CB1-CHO-C2) or binding assays (CB1-CHO-C3). HitHunter (CB1-CHO-cAMP) and PathHunter (CB-CHO-βarr2) assays were performed on respective CB1-CHO lines, and were a kind gift from Dr. Robert Laprairie[44]. CHO cells stably expressing cloned CB2 (CB2-CHO) were produced by electroporation with the human CB2 N-3xHA tag cDNA (GeneCopoeia). A stable expressing population was selected for with 500 μg/mL G418. CHO cells stably expressing the human mu opioid receptor were obtained from PerkinElmer (#ES-542-C). All cells were grown on 10 cm dishes in DMEM/F-12 50/50 mix w/ L-glutamine and 15 mM HEPES (Corning) containing 10% heat-inactivated fetal bovine serum, 100 units/mL penicillin, 100 units/mL streptomycin, and 400 μg/mL G418 (CB1-CHO-C2, CB1-CHO-C3, CB2-CHO, MOR-CHO); 800 μg/mL G418 (CB1-CHO-cAMP); 800 μg/mL G418 and 300 μg/mL hygromycin B (CB1-CHO-βarr2). WT CHO were grown as stated above without selection antibiotic. Cells were incubated in a humidified incubator at 37 °C with 5% CO2 and were sub-cultured every 2–3 days.
Cells were plated in 6-well plates 24 h prior to the start of the experiments. Cells were serum starved for 1 h then treated for 5 min with compound. In antagonist experiments, cells were pretreated for 5 min before agonist treatment for 5 min. Media was then aspirated, cells were placed on ice, washed with ice-cold PBS once, and lysis buffer (20 mM Tris–HCl, pH 7.4, 150 mM NaCl, 2 mM EDTA, 0.1% SDS, 1% Nonidet P-40, 0.25% deoxycholate, 1 mM sodium orthovanadate, 1 mM PMSF, 1 mM sodium fluoride, and a protease inhibitor cocktail (EMD Millipore)), was added. Cells were scraped and collected. Lysates were vortexed then centrifuged at 13 k rpm at 4 °C for 10 min. Lysates were then processed for Western blots or stored at − 80 °C.
Cell lysate protein was quantified with a modified BCA protein assay using manufacturers protocol (Bio-Rad). Samples (20–30 μg) were ran on precast gels (10% Bis–Tris, Bolt brand, from ThermoFisher). Gels were wet-transferred to nitrocellulose membranes at 30 V for at least 60 min at 4 °C. Blots were blocked with 5% non-fat dry milk in TBS for 30 min, washed 3 × for 5 min with TBS + 0.1% Tween-20 (TBST), and incubated with primary antibody overnight at 4 °C. Primary antibody: pERK and tERK (Cell Signaling) at 1:1000 dilution in 5% BSA in TBST. Blots were then washed 3 × with TBST then incubated with secondary antibodies for 90 min at room temperature. Secondary antibodies: Goat anti-Rabbit 800 W and Goat anti-Mouse 680 diluted at 1:10,000 and 1:20,000 (Licor), respectively, in 5% non-fat milk in TBST. Blots were washed 3X with TBST and 1 × with TBS, then imaged on a Licor Odyssey Fc or Azure Sapphire. Bands were analyzed using Image-J and reported as pERK/tERK normalized to the standard, or simply as pERK/tERK.

[5] = target: T2, human mu opioid receptor (Homo sapiens, UniProt P35372); assay type: cell-based; conditions: 500 μM terpene or 10 μM morphine, 5 min, Fig. S13A
T2 construct: host or cells: CHO (MOR-CHO)
Experimental: Cells were plated in 6-well plates 24 h prior to the start of the experiments. Cells were serum starved for 1 h then treated for 5 min with compound. In antagonist experiments, cells were pretreated for 5 min before agonist treatment for 5 min. […] Cells were scraped and collected. Lysates were vortexed then centrifuged at 13 k rpm at 4 °C for 10 min. Lysates were then processed for Western blots or stored at − 80 °C.
CHO cells were serum starved for 1 hr, then treated with Vehicle, 10 μM morphine, or 500
μM terpene for 5 min. ERK was quantitated and reported as above. Data expressed as the
vs. Vehicle group by 1 Way ANOVA with Dunnett’s post hoc test. B) MOR-CHO cells
serum starved for 1 hr, then pre-treated with Vehicle or 10 μM naloxone for 10 min, then
treated with Vehicle, 10 μM morphine, or 500 μM terpene for 5 min. ERK quantitated,
reported, and normalized as in A (n=3 independent experiments). *, **** = p < 0.05,
0.0001 vs. terpene-alone group for each set by 1 Way ANOVA with Sidak’s post hoc test
(set up as pairwise comparisons between terpene and terpene + naloxone for each set). For
both, representative blots are shown below each graph.

[6] = system: male and female CD-1 mice; test: Catalepsy ring test; assay type: in vivo; conditions: for catalepsy vs baseline: 15 min after i.p. 200 mg/kg terpene or 5.6 mg/kg WIN55,212-2, Fig. S2B
Experimental: Potential induction of catalepsy was assessed using the ring test as described. Mice were baselined, injected with compound, and then assessed with the ring test at 15 min post-injection. Data was represented as the percentage (%) of time in a “cataleptic” immobile state over the 5 min observation period.

[7] = system: male and female CD-1 mice; test: Hypothermia (core temperature, rectal thermometer); assay type: in vivo; conditions: 30 min after i.p. 200 mg/kg terpene or 5.6 mg/kg WIN55,212-2, Fig. S2A
Experimental: Changes in core temperature were assessed using a lubricated rectal thermometer placed 1.0 cm into the mouse rectum. Temperature was assessed before treatment and 30 min post-treatment.

[8] = system: male and female CD-1 mice; test: Open field test (hypolocomotion); conditions: for distance traveled and mobile time, experiment without baseline recording: vs Vehicle, Fig. S3A,B
Experimental: All experiments were performed on male and female CD-1 (a.k.a. ICR) mice obtained from Charles River in age-matched cohorts of 5–6 weeks of age. […] The animals were maintained in an AAALAC-accredited vivarium at the University of Arizona in temperature and humidity-controlled rooms on a 12-h light/dark cycle. Standard chow and water were available ad libitum. […] Mice were randomized to treatment group by randomization of mice to cages upon arrival, and block random assignment of cages to treatment group. The experimenter was blinded to treatment group by the delivery of coded drug vials. The groups were not decoded until all data had been acquired.
The open field test was used to determine potential hypolocomotive properties induced by terpene and cannabinoid treatment. The open field box was a white box with an open top and black floor. The tracking area was 30 cm × 28 cm. Mice were baselined by placing the mouse in the center of the box and recording from a video camera ~ 1.5 m above for a period of 5 min. Mice were then injected with compound and placed back in the open field box 10–15 min post-injection. In follow-up experiments, mice were not baselined, injected with compound, and placed in the open field box from 10 to 15 min. The total distance traveled and mobile time of mice were analyzed using AnyMaze software.

[9] = system: male and female CD-1 mice; test: Cannabinoid tetrad of behaviors (antinociception, hypolocomotion, catalepsy, hypothermia); assay type: in vivo; conditions: 200 mg/kg terpene i.p. (β-Caryophyllene control)
Description: Our first set of experiments sought to determine whether selected terpenes/terpenoids (α-Humulene, β-Pinene, Linalool [terpenoid], Geraniol [terpenoid], and β-Caryophyllene as a putative cannabinoid receptor type 2 [CB2] agonist control) had activity in the cannabinoid tetrad of behaviors mediated by the CB1 receptor: antinociception, hypolocomotion, catalepsy, and hypothermia. These terpenes were selected based on their quantities in Cannabis sativa, with α-Humulene, β-Pinene, Linalool, and β-Caryophyllene all being found in higher quantities and Geraniol in lower to underdetermined quantities. Although it is not clear if geraniol is present in higher quantities, we nonetheless chose this ligand due to its reported anti-nociceptive activity (e.g.[22]). Terpenes were administered at several doses (50–200 mg/kg) i.p. and assessed in the tail flick assay in male and female CD-1 mice. […]
Antinociception was tested using the tail flick thermal latency test. Mice were baselined by gently restraining the animal and lowering the distal portion of the tail into a water bath set to 52 °C or 47 °C where stated, and the latency to flick the tail recorded with a stopwatch, with a 10 s cutoff. […] Thermal latency was then assessed over a time course of 2 h, or at a single time-point as noted. […]
Potential induction of catalepsy was assessed using the ring test as described. […]

[10] = target: T1, CB1; assay type: cell-based; conditions: varying concentrations, 5 min, Fig. 6
Experimental: WT-CHO cells were obtained from ATCC (#CCL-61). […] CHO cells stably expressing cloned CB2 (CB2-CHO) were produced by electroporation with the human CB2 N-3xHA tag cDNA (GeneCopoeia). A stable expressing population was selected for with 500 μg/mL G418. […] All cells were grown on 10 cm dishes in DMEM/F-12 50/50 mix w/ L-glutamine and 15 mM HEPES (Corning) containing 10% heat-inactivated fetal bovine serum, 100 units/mL penicillin, 100 units/mL streptomycin, and 400 μg/mL G418 (CB1-CHO-C2, CB1-CHO-C3, CB2-CHO, MOR-CHO); 800 μg/mL G418 (CB1-CHO-cAMP); 800 μg/mL G418 and 300 μg/mL hygromycin B (CB1-CHO-βarr2). WT CHO were grown as stated above without selection antibiotic. Cells were incubated in a humidified incubator at 37 °C with 5% CO2 and were sub-cultured every 2–3 days.
Cells were plated in 6-well plates 24 h prior to the start of the experiments. Cells were serum starved for 1 h then treated for 5 min with compound. In antagonist experiments, cells were pretreated for 5 min before agonist treatment for 5 min. […] Cells were scraped and collected. Lysates were vortexed then centrifuged at 13 k rpm at 4 °C for 10 min. […]
Cell lysate protein was quantified with a modified BCA protein assay using manufacturers protocol (Bio-Rad). […] Bands were analyzed using Image-J and reported as pERK/tERK normalized to the standard, or simply as pERK/tERK.

[11] = 200 mg/kg terpene or 5.6 mg/kg WIN55,212-2 i.p.

T1 sequence (P21554 whole entry): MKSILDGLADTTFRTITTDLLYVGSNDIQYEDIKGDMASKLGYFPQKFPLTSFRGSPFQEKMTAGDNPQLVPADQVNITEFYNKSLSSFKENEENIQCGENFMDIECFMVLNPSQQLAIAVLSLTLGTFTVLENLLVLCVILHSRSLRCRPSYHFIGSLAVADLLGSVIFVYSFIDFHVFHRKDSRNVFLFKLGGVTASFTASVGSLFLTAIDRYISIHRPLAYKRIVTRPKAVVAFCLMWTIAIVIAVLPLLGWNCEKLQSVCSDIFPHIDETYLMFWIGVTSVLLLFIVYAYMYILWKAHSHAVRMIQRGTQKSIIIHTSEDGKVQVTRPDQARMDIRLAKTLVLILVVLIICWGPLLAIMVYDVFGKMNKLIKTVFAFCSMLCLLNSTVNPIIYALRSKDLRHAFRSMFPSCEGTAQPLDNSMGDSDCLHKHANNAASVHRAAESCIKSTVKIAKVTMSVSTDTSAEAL
T2 sequence (P35372 whole entry): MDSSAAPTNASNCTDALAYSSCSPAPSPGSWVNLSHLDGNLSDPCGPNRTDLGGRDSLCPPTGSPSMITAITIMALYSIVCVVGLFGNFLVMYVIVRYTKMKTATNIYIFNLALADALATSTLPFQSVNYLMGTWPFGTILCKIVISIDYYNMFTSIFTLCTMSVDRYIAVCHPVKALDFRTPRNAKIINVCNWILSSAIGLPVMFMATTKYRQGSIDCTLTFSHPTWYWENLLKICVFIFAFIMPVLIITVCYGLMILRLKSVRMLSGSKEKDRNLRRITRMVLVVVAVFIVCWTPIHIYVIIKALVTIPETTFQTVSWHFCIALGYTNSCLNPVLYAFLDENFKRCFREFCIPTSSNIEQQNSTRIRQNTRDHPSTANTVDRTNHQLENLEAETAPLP

Row | SMILES | effect of a full dose-range of Geraniol on WIN55,212-2 βarrestin2 recruitment [1] | efficacy in the tail flick assay ([2]; terpene 50–200 mg/kg i.p., dose-dependent) | competition for the orthosteric binding site against CP55,940 [3] | IC50 ([3]; mean (95% CI), n = 5, Fig. 8A, read-out: IC50, competition binding against 3H-CP55,940) | ERK phosphorylation in WT CHO cells [4] | ERK stimulation in MOR-CHO cells [5] | effect of istradefyllene pretreatment on catalepsy response ([6]; 10 mg/kg istradefyllene, 200 mg/kg terpene, Fig. 4) | effect of rimonabant pretreatment on catalepsy response ([6]; 10 mg/kg rimonabant, 200 mg/kg terpene, Fig. 4) | catalepsy vs baseline [6] | hypothermia vs baseline [7] | effect of istradefyllene pretreatment on mobile time ([8]; 10 mg/kg istradefyllene, 200 mg/kg terpene, Fig. 5) | effect of istradefyllene pretreatment on distance traveled ([8]; 10 mg/kg istradefyllene, 200 mg/kg terpene, Fig. S7) | locomotor activity vs baseline ([8]; 200 mg/kg terpene or 5.6 mg/kg WIN55,212-2 i.p., compared to baseline values, Fig. S2C,D, confounded by habituation) | distance traveled and mobile time, experiment without baseline recording [8, 11] | tail flick antinociception (efficacy in words) ([2]; terpenes 50–200 mg/kg i.p. (β-Caryophyllene 100 mg/kg), WIN55,212-2 up to 10 mg/kg, over 2 h) | rimonabant sensitivity of ERK activation in WT CHO cells ([4]; 500 μM terpene after 10 μM rimonabant, Fig. 7C) | number of classic cannabinoid tetrad behaviors induced (out of 4) [9] | ERK activation in CB1-CHO cells [10]
1 | CC(C)=CCC/C(C)=C/CO [Geraniol] | dose-dependent reductions in WIN55,212-2 recruitment | 40–50% | full competition | 44.2 µM | did not cause ERK phosphorylation | no response | partially blocked | no impact | significant increases in cataleptic behavior | induced significant hypothermia | significant reversal | istradefyllene reversal | significant reductions in locomotor activity | reductions in distance traveled and mobile time |  |  |  | 
2 | C=C1CC/C=C(\C)CC[C@@H]2[C@@H]1CC2(C)C [β-Caryophyllene, reference compound] |  |  | some competition and semi-biphasic properties |  | activated ERK | produced ERK stimulation |  |  | did not induce | did not induce |  |  |  | did not result in significant reductions | low efficacy | rimonabant-insensitive | did not | activated downstream ERK signaling
